This is an account of results in patent US20260242478A1, “ANTIBODIES FOR TARGETING PSMA AND CD28 AND USES THEREOF” (Janux Therapeutics, Inc., priority 2023, published 2026).

Sequence of anti-CD28 Fab (SEQ ID NOs: 696, 697) (as listed by the source): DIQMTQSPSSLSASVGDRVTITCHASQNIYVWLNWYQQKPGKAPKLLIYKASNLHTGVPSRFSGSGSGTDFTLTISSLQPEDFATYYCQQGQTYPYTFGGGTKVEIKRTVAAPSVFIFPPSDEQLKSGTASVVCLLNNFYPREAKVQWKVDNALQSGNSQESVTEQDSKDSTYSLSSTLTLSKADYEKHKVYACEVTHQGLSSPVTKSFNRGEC
Sequence of anti-CD28 Fab (SEQ ID NOs: 696, 697) (as listed by the source): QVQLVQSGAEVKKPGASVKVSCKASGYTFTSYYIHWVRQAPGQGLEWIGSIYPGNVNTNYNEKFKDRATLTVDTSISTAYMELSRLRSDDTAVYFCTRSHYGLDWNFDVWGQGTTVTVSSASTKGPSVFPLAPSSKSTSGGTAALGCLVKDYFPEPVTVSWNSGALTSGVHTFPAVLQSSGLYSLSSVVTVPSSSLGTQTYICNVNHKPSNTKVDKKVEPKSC

For one test, the system named is anti-CD28 scFv (SEQ ID NO: 9). The test can be described thus: Kinetic binding of anti-CD28 scFv to peptides, bio-layer interferometry (Octet RED96). To be noted: Table 34; CD28 scFv titrated 100-12.5 nM, 200 nM peptide loaded. The method, then: (§1) Briefly, streptavidin biosensors were loaded with biotinylated peptides and baselined in buffer. […] After a short association period, sensors were transferred into buffer and the dissociation of bound anti-CD28 scFv was measured. The timing and steps of the experiment are shown in the accompanying table. Association and dissociation signals were recorded in real time and analyzed using a 1:1 binding model within the instrument software. Analysis using a 1:1 binding model enabled the calculation of the on and off rate constants as well as affinity, KD.
Sequence of anti-CD28 scFv (SEQ ID NO: 9) (as listed by the source): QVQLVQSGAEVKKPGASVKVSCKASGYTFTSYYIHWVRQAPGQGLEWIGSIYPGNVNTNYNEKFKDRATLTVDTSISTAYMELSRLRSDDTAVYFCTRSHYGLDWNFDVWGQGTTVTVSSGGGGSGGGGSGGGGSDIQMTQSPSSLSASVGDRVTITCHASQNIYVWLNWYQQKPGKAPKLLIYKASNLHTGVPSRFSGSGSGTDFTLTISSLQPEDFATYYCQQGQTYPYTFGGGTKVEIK
as §1, with “KD. FIGS. 70A-70F illustrate kinetic binding of anti-CD28 scFv binding to peptides as measured by Octet. FIGS. 70G-70U illustrate kinetic binding of peptides to the anti-CD28 scFv as measured by Octet.” for “KD.”
For orientation: BLI is a label-free optical method that tracks binding on a fibre tip over time.
GYCHYWGDMVMWCG [Peptide-12]: the kdis came out at 0.00167 s⁻¹ and the kon (usually the rate constant with which the complex forms) was found to be 98700 M⁻¹ s⁻¹.
Taken in the same sequence, the figures for MDWCPRERWVDCFF [Peptide-9] were 0.0123 s⁻¹ and 32500 M⁻¹ s⁻¹.

Staying with this test, now noted: Table 36; anti-CD28 scFv titrated 100-12.5 nM, 200 nM peptide loaded.
Regarding MNWCPKDIWYLCFN [Peptide-34], the Kd (commonly the constant that tells how readily two partners part at equilibrium) was 88.8 nM, the kdis was determined as 0.00684 s⁻¹ and the kon worked out at 77000 M⁻¹ s⁻¹.
In the same order, the values of MDWCPIHLWHVCFN [Peptide-32] are 49.9 nM, 0.00295 s⁻¹ and 59100 M⁻¹ s⁻¹.
In the same order, the values of MDWCPRDMWDECFA [Peptide-42] are 152 nM, 0.00433 s⁻¹ and 28400 M⁻¹ s⁻¹.
In the same order, the values of MDWCPRHMWNYCFA [Peptide-46] are 35.2 nM, 0.00218 s⁻¹ and 61900 M⁻¹ s⁻¹.
In turn, MDWCPIDLWNECFF [Peptide-31] showed a Kd of 71.8 nM, a kdis of 0.00369 s⁻¹ and a kon of 51400 M⁻¹ s⁻¹.
In the same order, the values of MDWCPVHLWSVCFA [Peptide-50] are 48 nM, 0.00443 s⁻¹ and 92300 M⁻¹ s⁻¹.
In the same order, the values of MDWCPRDLWHECFA [Peptide-38] are 92.3 nM, 0.00277 s⁻¹ and 30000 M⁻¹ s⁻¹.
On to MDWCPRDMWSECFA [Peptide-43], for which the affinity, expressed as Kd, was 192 nM; the kdis worked out at 0.0032 s⁻¹; the kon was 16700 M⁻¹ s⁻¹.
In the same order, the values of MDWCPRDLWDLCFA [Peptide-37] are 97.8 nM, 0.00351 s⁻¹ and 35900 M⁻¹ s⁻¹.
For the sequence MDWCPRFMWDECFN [Peptide-45], the Kd amounted to 134 nM, the kdis came to 0.00364 s⁻¹ and the kon turned out to be 27100 M⁻¹ s⁻¹.
As to MDWCPRYLWHVCFA [Peptide-48], the equilibrium dissociation constant (Kd) was 21.1 nM, the kdis was 0.00187 s⁻¹ and the kon was 88900 M⁻¹ s⁻¹.
Taken in the same sequence, the figures for MDWCPLHMWHECFS [Peptide-35] were 127 nM, 0.00497 s⁻¹ and 39000 M⁻¹ s⁻¹.
In the same order, the values of MDWCPRDLWHLCFS [Peptide-39] are 51.9 nM, 0.00265 s⁻¹ and 51100 M⁻¹ s⁻¹.
As to MDWCPRDLWSECFF [Peptide-40], the Kd was found to be 79.9 nM, the kdis is 0.0031 s⁻¹ and the kon came out at 38800 M⁻¹ s⁻¹.
Taken in the same sequence, the figures for MDWCPIYLWSECFN [Peptide-33] were 52.8 nM, 0.00153 s⁻¹ and 29000 M⁻¹ s⁻¹.
As to MHWCPVDLWYLCYN [Peptide-49], binding was characterised by a dissociation constant (Kd) of 21.1 nM, the kdis came out at 0.00186 s⁻¹ and the association rate constant (kon) stood at 88200 M⁻¹ s⁻¹.
Taken in the same sequence, the figures for MDWCPRDMWSVCFS [Peptide-44] were 374 nM, 0.00812 s⁻¹ and 21700 M⁻¹ s⁻¹.
In the same order, the values of MDWCPRERWVDCFF [Peptide-9] are 278 nM, 0.0115 s⁻¹ and 41500 M⁻¹ s⁻¹.
Taken in the same sequence, the figures for MDWCPRSLWHECFA [Peptide-47] were 51.8 nM, 0.00201 s⁻¹ and 38900 M⁻¹ s⁻¹.
MDWCPLYLWNECFN [Peptide-36] displayed a Kd of 68.7 nM, a kdis of 0.00252 s⁻¹ and a kon of 36700 M⁻¹ s⁻¹.

The target of another test is PSMA Fab (SEQ ID NOs: 19, 20) binding to the PSMA antigen. The test can be described thus: Inhibition of PSMA Fab binding to PSMA by peptides, competition ELISA (incl. alanine scanning). Also noted: key to Mutation Status: tolerant (T); somewhat tolerant (ST); intolerant (IT). To be noted: Table 39; PSMA Fab fixed at 0.3 nM, peptide 0-100 μM. On the procedure: PSMA Fab fixed at 0.3 nanomolar (nM) concentration was pre-incubated with 0-100 micromolar (μM) titrated peptides. After a short pre-incubation period, the mixture of titrated peptide with fixed PSMA Fab were added to the PSMA antigen coated plates. After a short incubation on the plates, bound PSMA Fab was detected with a standard horse radish peroxidase conjugated secondary antibody.
Sequence of PSMA Fab (SEQ ID NOs: 19, 20) binding to the PSMA antigen (as listed by the source): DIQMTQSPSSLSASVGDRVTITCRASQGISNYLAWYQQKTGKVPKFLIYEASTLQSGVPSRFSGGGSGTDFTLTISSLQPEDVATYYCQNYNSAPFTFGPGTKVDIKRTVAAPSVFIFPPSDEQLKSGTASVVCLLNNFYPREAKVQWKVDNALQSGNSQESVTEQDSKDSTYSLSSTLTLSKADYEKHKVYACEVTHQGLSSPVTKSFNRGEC
Sequence of PSMA Fab (SEQ ID NOs: 19, 20) binding to the PSMA antigen (as listed by the source): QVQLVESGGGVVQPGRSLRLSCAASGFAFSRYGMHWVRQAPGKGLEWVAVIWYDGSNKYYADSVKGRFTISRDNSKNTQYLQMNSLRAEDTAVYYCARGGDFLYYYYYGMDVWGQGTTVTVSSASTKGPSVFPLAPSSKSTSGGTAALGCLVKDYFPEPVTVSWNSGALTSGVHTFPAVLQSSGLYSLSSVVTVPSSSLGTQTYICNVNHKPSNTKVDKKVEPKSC
Sequence of PSMA Fab (SEQ ID NOs: 19, 20) binding to the PSMA antigen (Q04609 whole entry partner): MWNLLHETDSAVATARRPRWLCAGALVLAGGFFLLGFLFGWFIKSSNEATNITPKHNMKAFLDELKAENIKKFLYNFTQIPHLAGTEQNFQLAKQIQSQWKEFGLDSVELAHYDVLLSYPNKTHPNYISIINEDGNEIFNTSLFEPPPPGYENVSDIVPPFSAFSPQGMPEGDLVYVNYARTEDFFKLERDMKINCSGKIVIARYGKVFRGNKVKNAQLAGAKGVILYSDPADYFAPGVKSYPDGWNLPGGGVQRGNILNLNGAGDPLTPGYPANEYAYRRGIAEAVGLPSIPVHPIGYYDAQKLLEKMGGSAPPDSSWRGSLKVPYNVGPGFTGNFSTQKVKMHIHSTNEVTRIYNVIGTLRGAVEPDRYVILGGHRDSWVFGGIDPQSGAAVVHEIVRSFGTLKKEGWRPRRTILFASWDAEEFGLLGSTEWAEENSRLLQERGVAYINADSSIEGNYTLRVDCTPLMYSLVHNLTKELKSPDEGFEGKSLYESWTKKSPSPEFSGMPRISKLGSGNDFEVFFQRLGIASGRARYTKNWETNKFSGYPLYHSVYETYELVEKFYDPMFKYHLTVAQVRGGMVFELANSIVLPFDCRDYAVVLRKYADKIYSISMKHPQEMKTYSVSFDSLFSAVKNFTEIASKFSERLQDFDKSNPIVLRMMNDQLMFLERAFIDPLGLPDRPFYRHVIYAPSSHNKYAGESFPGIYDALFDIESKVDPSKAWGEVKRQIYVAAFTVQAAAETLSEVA
The tables also designate each alanine mutation as tolerant (T), somewhat tolerant (ST), or intolerant (IT) based on changes in binding inhibition ability relative to the non-mutated peptide. Cys-5 and Cys-11 of peptide-179 and peptide-180 were not mutated.
(In general: In an ELISA, binding on a coated surface is turned into a signal by an enzyme label.)
Consider WCWVQDDRRHVVCG [Peptide-201], for which the 50% inhibitory concentration (IC50) (usually the concentration that inhibits the measured activity by half) was more than 100 µM.
On the same count and under the same terms, the figure for YCWVDADMWLIFRC [Peptide-199] is more than 100 µM; for FWECYSSFCRFVEG [Peptide-196] it is more than 100 µM; for PLCGTEEVWWECRL [Peptide-197] it is more than 100 µM.
On the same count and under the same terms, under FVPCIPSHWLCPIW [Peptide-191] stands more than 100 µM; under HCLWHESSGRVLCF [Peptide-192], more than 100 µM.

The test is the same for the next values; noted with them: Table 40; alanine scanning of Peptide-179, change in binding inhibition relative to non-mutated peptide.
As for LMKACTPRWMCAAE [Peptide-244], the “Mutation Status” value is reported as “ST”.
On the same count and under the same terms, the entry for LMKWCTPRWMC [Peptide-250] is “T”; for LMKWCTARWMCAAE [Peptide-246] it is “IT”; for LMKWCTPRAMCAAE [Peptide-248] it is “IT”.
Same read-out and setting: under LMKWCAPRWMCAAE [Peptide-245] stands “ST”; under AMKWCTPRWMCAAE [Peptide-241], “T”.
Still for that read-out and setting: under LMKWCTPRWACAAE [Peptide-249] stands “IT”.

Staying with this test, now noted: Table 40; competition binding ELISA, alanine scanning sequences of Peptide-179.
Consider LMKWCTPRWMC [Peptide-250], for which the IC50 came to 6.64 µM.
With LMKWCTARWMCAAE [Peptide-246], the IC50 is more than 100 µM.
As for LMKWCTPRAMCAAE [Peptide-248], the IC50 is more than 100 µM.
In the case of LMKWCTPRWACAAE [Peptide-249], the IC50 is more than 100 µM.

Still in this test, the particulars now being: Table 41; alanine scanning of Peptide-180, change in binding inhibition relative to non-mutated peptide.
Regarding AAVLCQPNWMCAGF [Peptide-251], the “Mutation Status” value is listed as “T”.
Same read-out and setting: the entry for IAVLCQANWMCAGF [Peptide-255] is “IT”.
The same measure, in the same setting: under IAVLCQPNWACAGF [Peptide-258] stands “IT”; under IAVLCAPNWMCAGF [Peptide-254], “T”; under IAALCQPNWMCAGF [Peptide-252], “T”.
The same measure, in the same setting: under IAVLCQPNWMCAGA [Peptide-260] stands “ST”; under IAVLCQPAWMCAGF [Peptide-256], “T”.

Still in this test, the particulars now being: Table 41; competition binding ELISA, alanine scanning sequences of Peptide-180.
Take IAVLCQANWMCAGF [Peptide-255]: the IC50 was more than 100 µM.
The same measure, in the same setting: the figure for IAVLCQPNWACAGF [Peptide-258] is more than 100 µM.

Staying with this test, now noted: Table 42; SAR guided optimization phage library of peptide-180.
For VEVKCFPLWFCVGL [Peptide-275], the IC50 is more than 100 µM.

Staying with this test, now noted: Table 43; SAR guided optimization phage library of peptide-179.
EPKWCVPRGLCNYD [Peptide-240]: the IC50 is more than 100 µM.

A further test addresses anti-CD28 Fab (SEQ ID NOs: 696, 697). The test can be described thus: anti-CD28 Fab binding to peptides, ELISA. To be noted: Table 25; anti-CD28 Fab.
For the sequence TCSAGATYEWPRCL [Peptide-149], the EC50 (in general, the concentration at which the effect is half-maximal) came out at 12.8 nM.
Still for that read-out and setting: under SCSAGAAYYWPWCL [Peptide-151] stands 112 nM; under TCSAGATWPWPICL [Peptide-137], 2.1 nM; under TCSAGAHYPWPICL [Peptide-150], 10.6 nM.
Still for that read-out and setting: the figure for TCAAGAHYPWPACL [Peptide-154] is 4.2 nM; for LCAAGATYPWPLCL [Peptide-144] it is 5.6 nM.
On the same count and under the same terms, the figure for TCSAGAAYSWPACF [Peptide-146] is 24.3 nM; for TCSAGATYTWPKCF [Peptide-141] it is 15.7 nM.
TCAAGAAWGWPLCF [Peptide-143]: the EC50 came out at 5.6 nM.
Still for that read-out and setting: under SCSAGAHYPWPQCF [Peptide-148] stands 19 nM; under TCAAGAAWPWPQCL [Peptide-140], 2.6 nM; under TCSAGAAYPWPLCL [Peptide-145], 4.4 nM.
Same read-out and setting: under TCSAGASYPWPLCL [Peptide-139] stands 5.3 nM.
Still for that read-out and setting: under LCAAGASWPWPVCL [Peptide-138] stands 13.1 nM; under LCAAGATYPWPTCL [Peptide-147], 25.8 nM.
As for TCSAGATWAWPLCF [Peptide-152], a half-maximal effect (EC50) was put at 15.6 nM.
Still for that read-out and setting: the figure for TCAAGATYLWPTCL [Peptide-153] is 20.5 nM.
With TCAAGATWSWPACF [Peptide-142], it took 4.5 nM to reach a half-maximal effect (EC50).

The test is the same for the next values; noted with them: Table 26; anti-CD28 Fab.
On to YCEGHAPEYIGKCL [Peptide-136], for which the EC50 is 44.9 nM.
Same read-out and setting: the figure for YCEGHSQEYLWKCL [Peptide-128] is 59.4 nM.
On the same count and under the same terms, under HCSGHHWLQVWKCF [Peptide-130] stands more than 1000 nM; under YCEGHLPEYLGKCL [Peptide-125], 12.1 nM.
The same measure, in the same setting: under YCWSHSPPFIKKCY [Peptide-131] stands more than 1000 nM.
Turning to YCEGHLPEYLEKCV [Peptide-133], it took 32.5 nM to reach a half-maximal effect (EC50).
Sequence YCEGHAPEYIRKCL [Peptide-122] registered an EC50 of 7.8 nM.
The same measure, in the same setting: under YCEGHSPEYILKCL [Peptide-117] stands 11 nM; under YCEGHSQENIWKCL [Peptide-124], 28.1 nM; under YCEGHSSEYIQKCL [Peptide-129], 30.5 nM.
The same measure, in the same setting: under YCEGHRPEYILKCL [Peptide-118] stands 65.8 nM; under YCEGHAPEYIWKCL [Peptide-123], 8.1 nM; under YCEGHEGIYFWKCL [Peptide-119], 128 nM.
